# According to patent publication US20170333388A1, “Therapeutic compound and its application in repairing diabetes-related cardiac injuries” (Numen Biotech Co., Ltd, priority 2016, published 2017):
# Legend:
# Format in all cases: cell-based, rat
# [1] = test system: adipose-derived stem cells (ADSC); assay: stem cell proliferation (colony) experiment in high glucose medium; conditions: high glucose destroyed stem cells (33 mM glucose)
# Procedure: The adipose-derived stem cells were taken out from the abdominal adipose tissue of 8-month-old Wistar male rats via surgery. After cutting the adipose tissues into suitable sizes, the adipose tissues were washed by antibiotic containing saline. The washed adipose tissues were placed into a Type II collagenase (0.01%) containing saline, and were stirred and heated under 37° C. water bath for 1 hour. Then the adipose tissues were centrifuged by 3000 rpm under room temperature for 10 minute, the precipitants were extracted for cell culture in the culture dish.
# In the aspect of stem cell proliferation experiment, the more the number of stem cell colonies in different experimental conditions represents for the better growth experiment condition for stem cells. The stem cells were divided into 5 different groups, which were: Group 1: stem cell group, Group 2: high glucose destroyed stem cell group, Group 3: EGCG (2.5 μM in concentration) precondition high glucose destroyed stem cell group, Group 4: EGCG (5 μM in concentration) precondition high glucose destroyed stem cell group, Group 5: EGCG (10 μM in concentration) precondition high glucose destroyed stem cell group. […] In comparison with the normal stem cell group (Group 1), the distribution of the stem cells colonies cultured in high glucose medium was inhibited (Group 1>Group 2, p<0.001). In contrast, in comparison to the high glucose destroyed stem cells, the stem cell colonies were recovered under different EGCG concentration precondition (Group 2<Group 3, p<0.05; Group 2<Group 4, p<0.05; Group 2<Group 5, p<0.01). Then the migration ability of stem cells under different experiment conditions was tested. The more numbers of stem cells represent the stem cells have stronger migration ability under this experiment condition.
# [2] = test system: adipose-derived stem cells (ADSC); assay: transwell migration assay of ADSC in high glucose medium
# Procedure: The stem cells were divided into five different groups, which were: Group 1: stem cell group, Group 2: high glucose destroyed stem cell group, Group 3: EGCG (2.5 μM in concentration) precondition high glucose destroyed stem cell group, Group 4: EGCG (5 μM in concentration) precondition high glucose destroyed stem cell group, Group 5: EGCG (10 μM in concentration) precondition high glucose destroyed stem cell group. […] The migration ability of the five groups was: 63±10, 36±7, 55±5, 84±6 and 144±4, respectively. In comparison with the normal stem cell group (Group 1), the migration ability of the stem cells cultured in high glucose medium was decreased (Group 1>Group 2, p<0.05). In contrast, in comparison to the high glucose destroyed stem cells, the migration ability of stem cells was recovered under different EGCG concentration precondition (Group 2<Group 3, p<0.05; Group 2<Group 4, p<0.001; Group 2<Group 5, p<0.001). Then the migration ability of stem cells under different experiment conditions was tested. The more numbers of stem cells represents the stem cells have stronger migration ability under this experiment condition.
# During the analysis of protein expression level, the EGCG induced expression level of CXCR4 and p-Akt increase would be eliminated by siRNA CXCR4. […] The stem cells were divided into six groups in this test, which were: Group 1: stem cell group, Group 2: high glucose destroyed stem cell group, Group 3: EGCG (10 μM in concentration) precondition high glucose destroyed stem cell group, Group 4: siRNA CXCR4 (3 nM) was added in Group 3, Group 5: CXCR4 siRNA (10 nM) was added into Group 4. The numbers of migrated stem cells were 288±25, 36±7, 159±17, 84±6, 41±8 and 40±2 respectively.
# [3] = test system: adipose-derived stem cells (ADSC); assay: Western blot of protein expression in ADSC preconditioned with EGCG
# Procedure: After the drug treatment, the culture medium was removed from the cells and rinsed with PBS buffer for three times; then 1 mL PBS was used to scrape the cells from the dish and the cells containing solution was placed in a centrifuge tube, and the solution was centrifuged by 12,000 rpm for 10 minutes, then the supernatant was removed, and the lysis buffer (50 mM Tris pH 7.5,0.5 M NaCl, 1.0 mM EDTA pH 7.5,1 mM BME, 1% NP40,10% glycerol, protease inhibitor cocktail table) was added and mixed. The mixture was placed on ice and shock once every 5 minutes for 30 minutes, and then the mixture was centrifuged at 12,000 g in 4° C. for 10 minutes, the upper layer was placed in a new tube to measure the protein concentration.
# After the drug treatment, the culture medium was removed from the cells and rinsed with PBS buffer for three times; then 1 mL PBS was used to scrape the cells from the dish and the cells containing solution was placed in a centrifuge tube, and the solution was centrifuged by 12,000 rpm for 10 minutes then the supernatant was removed and extraction buffer (50 mM Tris pH 7.5-0.5 M NaCl-1.0 mM EDTA pH 7.5-10% glycerol-protease inhibitor cocktail table) was added into the mill tube, then grinded on ice. And the homogenate was then placed in a new centrifuge tube to centrifuge at 4° C. by 12,000 rpm for 10 minutes, the upper layer was placed in a new centrifuge tube for measuring the protein concentration.
# […] protein samples were added into a PBS solution, and 5× loading dye was added then mixed evenly and boiled for 10 minutes, then analyze by SDS-polyacrylamide slab gel electrophoresis. The upper layer of the SDS-polyacrylamide gel electrophoresis was 3.75% Stacking gel, and the lower layer was 5% and 12% Separating gel. The plastic plates was fixed to the electrophoresis apparatus and the electrophoresis buffer was filled into the electrophoresis tank, and then the treated protein sample was added into the U-shaped groove formed on a plastic plate, and undergo electrophoresis with 75 volts. […]
# [4] = EGCG precondition at different concentrations vs high glucose destroyed stem cells
structure (smiles),measurement,setting,value
"O=C(O[C@@H]1Cc2c(O)cc(O)cc2O[C@@H]1c1cc(O)c(O)c(O)c1)c1cc(O)c(O)c(O)c1 [EGCG, epigallocatechin gallate]",stem cell colonies,[1]; EGCG 2.5 μM precondition,152±17
same,stem cell colonies,[1]; EGCG 5 μM precondition,178±22
same,stem cell colonies,[1]; EGCG 10 μM precondition,226±31
same,migration ability (numbers of migrated stem cells),"[2]; FIG. 4, EGCG 2.5 μM precondition",55±5
same,migration ability (numbers of migrated stem cells),"[2]; FIG. 4, EGCG 5 μM precondition",84±6
same,migration ability (numbers of migrated stem cells),"[2]; FIG. 4, EGCG 10 μM precondition",144±4
same,numbers of migrated stem cells,"[2]; FIG. 7, Group 3: EGCG 10 μM precondition",159±17
same,numbers of migrated stem cells,"[2]; FIG. 7, Group 4: EGCG 10 μM precondition, siRNA CXCR4 3 nM added",84±6
same,numbers of migrated stem cells,"[2]; FIG. 7, Group 5: EGCG 10 μM precondition, CXCR4 siRNA 10 nM added",41±8
same,apoptosis protein cytochrome-C expression level,[3]; [4],decreased
same,migration protein (CXCR4) expression level,[3]; [4],recovered
same,EGCG induced increase of CXCR4 and p-Akt expression level,"[3]; FIG. 6, in the presence of siRNA CXCR4",eliminated
